Where two headings read alike, the source gives them in different places.
What was measured:
[1] = molecular target: PI3K-alpha (Homo sapiens, UniProt P42336); assay: PI3K-alpha fluorescence polarization assay; type: biochemical; conditions: 20 μM PIP2, 25 μM ATP; read-out: PI3Kα IC50
How it was run: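 PIP2 (diC8) and ATP substrate with PI3K in 20 mM HEPES pH 7.5, 2 mM MgCl2, 0.05% CHAPS, 0.01% βME; 1% DMSO final; 30–60 min reaction. Stopped with EDTA plus GST-GRP (70 nM) and TAMRA probe (10 nM); FP (mP) read after 30–90 min, with no-enzyme controls.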

[2] = molecular target: PI3K-gamma (Homo sapiens, UniProt P48736); assay: PI3K-gamma fluorescence polarization assay; type: biochemical; conditions: 20 μM PIP2, 25 μM ATP; read-out: PI3Kγ IC50
Protocol: The reaction buffer was 20 mM HEPES, pH 7.5, 2 mM MgCl2, 0.05% CHAPS; and 0.01% βME (added fresh). The stop/detection buffer was 100 mM HEPES, pH 7.5, 4 mM EDTA, 0.05% CHAPS; ATP 20 mM in water; PIP2 (diC8, Echelon, Salt Lake City Utah cat #P-4508) 1 mM in water (MW=856.5). The GST-GRP was 1.75 mg/mL or 1.4 mg/mL in 10% glycerol. The red detector (TAMRA) was 2.5 μM. Nunc 384-well black polypropylene fluorescent plates were used for PI3K assays.
The assay is run by placing 5 μL of diluted enzyme per well, then 5 μL of diluted compound (or 9.5 μL enzyme then 0.5 μL compound in DMSO) is added and mixed. Then, 10 μL substrate is added to start the reaction. The samples are incubated 30-60 minutes, then the reaction is stopped by adding 20 μL stop/detector mix. PI3K is diluted with reaction buffer (e.g., 5 μL or 7.5 μL PI3K into 620 μL reaction buffer), and 5 μL of diluted enzyme is used per well. A 5 μL portion of reaction buffer or of drug diluted in buffer (e.g., 4 μL/100 so final DMSO is 1% in reaction) is added to each. Pipetting up and down mixes the samples. Alternatively, the enzyme can be diluted to 1215 μL. In this case 9.8 μL is added per well and 0.2 μL compound is added in DMSO.
To prepare 1 mL of substrate solution, 955 μL reaction buffer, 40 μL PIP2, and 2.5 μL ATP are mixed. 10 μL of substrate is added to each well to start the reaction. […] The stop/detector mix is prepared by mixing 4 μL red detector and 1.6 μL or 2.0 μL GST-GRP with 1 mL stop buffer, which results in 10 nM probe and 70 nM GST-GRP. 20 μL of the stop/detector mix is added to each well to stop the reaction. The plates are read after 30-90 minutes keeping the red probe solutions dark. For the zero time point, stop/detector mix is added to the enzyme just before adding substrate. For an extra control, stop/detector mix is added to buffer (no enzyme) and substrate or to just buffer (no substrate). […] The recommended reaction has 0.06 μL per 20 μL (0.015 μg/20 μL) or 0.01125 μg/15 μL or 0.75 μg/mL.
Plates are read on machines with filters for TAMRA. The units are mP with no enzyme controls reading app 190-220 mP units. Fully active enzyme reduces fluorescence polarization down to 70-100 mP after 30 minutes. An active compound raises the mP values halfway to control or to 120-150 mP units.

[3] = system: LNCap; assay: In vitro cell growth assay (MTS), LNCap; type: cell-based; conditions: human prostate line, three days after drug treatment
[4] = system: MDA468; assay: In vitro cell growth assay (MTS), MDA468; type: cell-based; conditions: human breast line MDA468, three days after drug treatment, read-out: MDA IC50
[5] = molecular target: mTOR (Homo sapiens, UniProt P42345); assay: mTOR enzyme assay (DELFIA, purified FLAG-TOR, His6-S6K substrate); type: biochemical; set-up: FLAG; conditions: 100 μM ATP, 2 hours
Chain of mTOR (P42345 1360-2549 limits assumed): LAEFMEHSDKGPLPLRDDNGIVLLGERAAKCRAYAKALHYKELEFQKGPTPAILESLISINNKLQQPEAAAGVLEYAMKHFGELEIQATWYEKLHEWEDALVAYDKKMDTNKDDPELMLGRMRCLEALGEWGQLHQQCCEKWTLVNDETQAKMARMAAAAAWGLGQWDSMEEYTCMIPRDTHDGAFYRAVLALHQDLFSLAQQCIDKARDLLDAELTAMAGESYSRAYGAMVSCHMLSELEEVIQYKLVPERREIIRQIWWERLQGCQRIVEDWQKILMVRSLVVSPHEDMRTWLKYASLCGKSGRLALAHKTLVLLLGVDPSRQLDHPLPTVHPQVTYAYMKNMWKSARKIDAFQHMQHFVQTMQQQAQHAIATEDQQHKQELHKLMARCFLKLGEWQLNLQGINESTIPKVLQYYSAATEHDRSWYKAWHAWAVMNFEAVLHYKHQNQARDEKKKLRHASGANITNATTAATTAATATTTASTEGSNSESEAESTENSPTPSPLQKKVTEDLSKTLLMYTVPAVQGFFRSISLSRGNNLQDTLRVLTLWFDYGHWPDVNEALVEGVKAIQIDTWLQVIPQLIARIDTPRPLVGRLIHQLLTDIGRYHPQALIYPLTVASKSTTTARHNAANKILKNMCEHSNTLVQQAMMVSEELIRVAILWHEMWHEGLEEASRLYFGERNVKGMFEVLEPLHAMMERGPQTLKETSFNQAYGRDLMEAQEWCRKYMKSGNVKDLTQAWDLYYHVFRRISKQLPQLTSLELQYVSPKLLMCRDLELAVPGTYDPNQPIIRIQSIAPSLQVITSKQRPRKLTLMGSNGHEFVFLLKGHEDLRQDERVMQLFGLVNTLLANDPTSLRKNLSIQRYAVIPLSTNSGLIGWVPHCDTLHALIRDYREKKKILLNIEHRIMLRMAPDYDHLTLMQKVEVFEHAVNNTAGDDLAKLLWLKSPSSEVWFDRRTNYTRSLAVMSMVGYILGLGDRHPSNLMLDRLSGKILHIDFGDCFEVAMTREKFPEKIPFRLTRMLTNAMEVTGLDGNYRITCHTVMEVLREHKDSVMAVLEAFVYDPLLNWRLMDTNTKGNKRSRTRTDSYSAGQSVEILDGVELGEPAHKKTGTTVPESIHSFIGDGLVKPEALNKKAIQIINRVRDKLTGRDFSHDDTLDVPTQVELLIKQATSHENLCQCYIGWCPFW

Chain of PI3K-gamma (P48736 whole entry, species assumed): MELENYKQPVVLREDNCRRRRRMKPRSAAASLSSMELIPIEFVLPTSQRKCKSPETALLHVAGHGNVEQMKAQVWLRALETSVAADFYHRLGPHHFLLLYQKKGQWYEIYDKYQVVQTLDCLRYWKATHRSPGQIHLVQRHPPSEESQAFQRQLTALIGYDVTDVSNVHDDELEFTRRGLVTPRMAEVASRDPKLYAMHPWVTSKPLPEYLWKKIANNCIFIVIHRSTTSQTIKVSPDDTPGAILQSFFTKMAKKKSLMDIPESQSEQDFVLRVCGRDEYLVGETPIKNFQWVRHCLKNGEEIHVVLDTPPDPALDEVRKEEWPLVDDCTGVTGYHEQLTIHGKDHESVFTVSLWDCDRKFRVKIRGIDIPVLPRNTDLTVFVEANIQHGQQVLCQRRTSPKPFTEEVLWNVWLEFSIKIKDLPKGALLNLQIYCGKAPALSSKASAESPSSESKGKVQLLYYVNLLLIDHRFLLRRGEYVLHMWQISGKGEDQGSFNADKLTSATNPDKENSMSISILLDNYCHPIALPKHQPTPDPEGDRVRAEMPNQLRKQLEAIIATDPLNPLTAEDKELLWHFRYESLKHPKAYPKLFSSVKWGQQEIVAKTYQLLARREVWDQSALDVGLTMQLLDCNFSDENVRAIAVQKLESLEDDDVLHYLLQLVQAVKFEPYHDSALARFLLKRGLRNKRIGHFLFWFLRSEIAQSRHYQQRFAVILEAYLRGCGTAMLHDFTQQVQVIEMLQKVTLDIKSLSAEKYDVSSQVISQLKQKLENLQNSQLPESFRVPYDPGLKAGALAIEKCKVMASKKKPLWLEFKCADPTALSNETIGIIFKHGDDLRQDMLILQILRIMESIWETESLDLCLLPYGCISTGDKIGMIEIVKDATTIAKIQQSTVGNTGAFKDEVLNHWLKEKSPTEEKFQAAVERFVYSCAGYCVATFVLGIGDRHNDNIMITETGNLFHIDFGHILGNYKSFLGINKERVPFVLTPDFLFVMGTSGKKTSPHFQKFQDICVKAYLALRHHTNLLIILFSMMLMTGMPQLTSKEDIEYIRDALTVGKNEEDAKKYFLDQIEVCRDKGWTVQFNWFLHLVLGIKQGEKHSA
Chain of PI3K-alpha (P42336 whole entry, species assumed): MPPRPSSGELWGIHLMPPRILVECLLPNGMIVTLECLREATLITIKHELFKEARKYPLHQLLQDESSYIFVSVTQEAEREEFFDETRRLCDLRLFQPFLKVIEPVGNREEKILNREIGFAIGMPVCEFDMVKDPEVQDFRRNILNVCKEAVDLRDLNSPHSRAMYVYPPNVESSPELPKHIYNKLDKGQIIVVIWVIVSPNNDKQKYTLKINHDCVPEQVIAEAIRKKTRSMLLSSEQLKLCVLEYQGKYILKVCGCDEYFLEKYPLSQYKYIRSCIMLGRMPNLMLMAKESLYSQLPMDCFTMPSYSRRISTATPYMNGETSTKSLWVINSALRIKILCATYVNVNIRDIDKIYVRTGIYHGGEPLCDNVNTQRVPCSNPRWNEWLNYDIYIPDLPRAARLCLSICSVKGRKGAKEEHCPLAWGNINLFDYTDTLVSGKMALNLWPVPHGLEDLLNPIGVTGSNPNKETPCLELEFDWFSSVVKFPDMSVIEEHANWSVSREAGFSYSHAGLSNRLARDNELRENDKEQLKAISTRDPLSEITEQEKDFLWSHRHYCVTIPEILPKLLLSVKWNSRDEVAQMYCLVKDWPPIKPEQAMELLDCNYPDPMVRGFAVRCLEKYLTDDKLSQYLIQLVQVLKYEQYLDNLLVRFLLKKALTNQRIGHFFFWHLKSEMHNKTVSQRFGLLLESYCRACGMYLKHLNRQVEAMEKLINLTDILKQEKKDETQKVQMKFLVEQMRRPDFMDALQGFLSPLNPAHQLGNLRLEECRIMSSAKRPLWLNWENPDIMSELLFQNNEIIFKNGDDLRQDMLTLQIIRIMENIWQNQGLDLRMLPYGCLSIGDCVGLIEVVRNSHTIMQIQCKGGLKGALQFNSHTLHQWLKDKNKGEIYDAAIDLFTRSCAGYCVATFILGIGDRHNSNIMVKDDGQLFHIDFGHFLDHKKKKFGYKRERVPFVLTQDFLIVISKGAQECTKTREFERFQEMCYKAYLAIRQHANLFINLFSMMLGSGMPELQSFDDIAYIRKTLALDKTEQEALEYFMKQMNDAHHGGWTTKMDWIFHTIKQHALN
Chain of PI3K-alpha (P27986 whole entry partner, species assumed): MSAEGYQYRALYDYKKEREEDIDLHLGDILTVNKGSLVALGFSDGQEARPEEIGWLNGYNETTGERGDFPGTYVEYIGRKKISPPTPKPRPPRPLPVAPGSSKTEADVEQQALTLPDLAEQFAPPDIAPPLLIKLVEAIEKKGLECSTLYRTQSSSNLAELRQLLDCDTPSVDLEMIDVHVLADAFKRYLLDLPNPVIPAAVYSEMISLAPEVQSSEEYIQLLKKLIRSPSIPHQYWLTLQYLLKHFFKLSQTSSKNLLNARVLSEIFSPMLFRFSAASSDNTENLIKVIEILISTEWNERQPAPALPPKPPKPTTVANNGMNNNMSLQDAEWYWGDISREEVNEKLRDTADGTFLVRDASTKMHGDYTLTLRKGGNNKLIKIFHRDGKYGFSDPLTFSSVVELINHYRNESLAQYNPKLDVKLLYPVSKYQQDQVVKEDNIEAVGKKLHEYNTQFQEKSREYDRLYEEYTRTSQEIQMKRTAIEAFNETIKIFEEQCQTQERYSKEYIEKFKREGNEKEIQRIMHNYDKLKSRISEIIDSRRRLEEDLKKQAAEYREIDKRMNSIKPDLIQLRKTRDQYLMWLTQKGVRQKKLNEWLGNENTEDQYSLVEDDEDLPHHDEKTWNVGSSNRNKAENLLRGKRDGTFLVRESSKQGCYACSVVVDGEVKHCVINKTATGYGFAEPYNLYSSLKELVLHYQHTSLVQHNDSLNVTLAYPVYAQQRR

Structure (SMILES) | IC50 [1] [nM] | IC50 [2] [nM] | IC50 ([3]; LNCaP, 72 h) [nM] | IC50 ([4]; 72 h) [nM] | IC50 [5] [nM] | IC50 [3] [nM] | IC50 [4] [nM]
CC(C)Nc1cc(N2C3CCC2COC3)nc(-c2ccc(NC(=O)Nc3ccc(OCCN4CCCC4)cc3)cc2)n1 [1-(4-{4-[(1-methylethyl)amino]-6-(3-oxa-8-azabicyclo[3.2.1]oct-8-yl)pyrimidin-2-yl}phenyl)-3-[4-(2-pyrrolidin-1-ylethoxy)phenyl]urea] | 1320 | 4730 | 50 | 55 | 3.05 |  | 
CC(C)Nc1cc(N2C3CCC2COC3)nc(-c2ccc(NC(=O)Nc3ccc(CN4CCCC4)cc3)cc2)n1 [1-(4-{4-[(1-methylethyl)amino]-6-(3-oxa-8-azabicyclo[3.2.1]oct-8-yl)pyrimidin-2-yl}phenyl)-3-[4-(pyrrolidin-1-ylmethyl)phenyl]urea] | 1090 | 3580 | 110 | 80 | 2.95 |  | 
CC(C)Nc1cc(N2C3CCC2COC3)nc(-c2ccc(NC(=O)Nc3cccnc3)cc2)n1 [1-(4-{4-[(1-methylethyl)amino]-6-(3-oxa-8-azabicyclo[3.2.1]oct-8-yl)pyrimidin-2-yl}phenyl)-3-pyridin-3-ylurea] | 4350 | ≥ 10000 | 45 | 100 | 1.1 |  | 
O=C(Nc1ccncc1)Nc1ccc(-c2nc(N3C4CCC3COC4)cc(N3C[C@H]4C[C@@H]3CO4)n2)cc1 [1-(4-{4-[(1R,4R)-2-oxa-5-azabicyclo[2.2.1]hept-5-yl]-6-(3-oxa-8-azabicyclo[3.2.1]oct-8-yl)pyrimidin-2-yl}phenyl)-3-pyridin-4-ylurea] | 1890 | 7430 | 90 | 110 | 2.25 |  | 
O=C(Nc1ccncc1)Nc1ccc(-c2nc(N3C4CCC3COC4)cc(N3C[C@@H]4C[C@H]3CO4)n2)cc1 [1-(4-{4-[(1S,4S)-2-oxa-5-azabicyclo[2.2.1]hept-5-yl]-6-(3-oxa-8-azabicyclo[3.2.1]oct-8-yl)pyrimidin-2-yl}phenyl)-3-pyridin-4-ylurea] | 2810 | ≥ 10000 | 30 | 75 | 3.05 |  | 
CCN(CC)c1cc(N2C3CCC2COC3)nc(-c2ccc(NC(=O)Nc3ccncc3)cc2)n1 [1-{4-[4-(diethylamino)-6-(3-oxa-8-azabicyclo[3.2.1]oct-8-yl)pyrimidin-2-yl]phenyl}-3-pyridin-4-ylurea] | 2410 | 1990 |  |  | 4.55 |  | 
O=C(Nc1ccc(-c2nc(-c3ccccc3)cc(N3CC4CCC(C3)O4)n2)cc1)OCCO [2-hydroxyethyl {4-[4-(8-oxa-3-azabicyclo[3.2.1]oct-3-yl)-6-phenylpyrimidin-2-yl]phenyl}carbamate] | 452 |  | 600 | 5500 | 21.5 |  | 
O=C(Nc1ccc(-c2nccc(N3CC4CCC(C3)O4)n2)cc1)OCCO [2-hydroxyethyl {4-[4-(8-oxa-3-azabicyclo[3.2.1]oct-3-yl)pyrimidin-2-yl]phenyl}carbamate] | 5070 |  | 4000 | 24000 | 165 |  | 
NC(=O)c1ccc(NC(=O)Nc2ccc(-c3cc(N4CC5CCC(C4)O5)nc(-c4ccc(NC(=O)Nc5ccc(C(N)=O)cc5)cc4)n3)cc2)cc1 [4,4′-{[6-(8-oxa-3-azabicyclo[3.2.1]oct-3-yl)pyrimidine-2,4-diyl]bis(4,1-phenylenecarbamoylimino)}dibenzamide] | 44.5 |  |  |  | 0.58 | 41 | 45
Nc1ccc(-c2nccc(N3CC4CCC(C3)O4)n2)cc1 [4-[4-(8-oxa-3-azabicyclo[3.2.1]oct-3-yl)pyrimidin-2-yl]aniline] | 6850 |  | 41000 | ≥ 60000 | 4000 |  | 
O=C(Nc1ccc(-c2cc(N3CC4CCC(C3)O4)nc(-c3ccc(NC(=O)Nc4cccnc4)cc3)n2)cc1)Nc1cccnc1 [N,N″-{[6-(8-oxa-3-azabicyclo[3.2.1]oct-3-yl)pyrimidine-2,4-diyl]di-4,1-phenylene}bis(3-pyridin-3-ylurea)] | 101 |  | 180 | 380 | 2.8 |  | 
O=C(Nc1ccncc1)Nc1ccc(-c2cc(N3CC4CCC(C3)O4)nc(-c3ccc(NC(=O)Nc4ccncc4)cc3)n2)cc1 [N,N″-{[6-(8-oxa-3-azabicyclo[3.2.1]oct-3-yl)pyrimidine-2,4-diyl]di-4,1-phenylene}bis(3-pyridin-4-ylurea)] | 69.5 |  | 220 | 780 | 3.2 |  | 
CC(C)Nc1nc(-c2ccc(NC(=O)Nc3cccnc3)cc2)nc(N2CC3CCC(C2)O3)c1NC(=O)CCN(C)C [N~3~,N~3~-dimethyl-N-(4-[(1-methylethyl)amino]-6-(8-oxa-3-azabicyclo[3.2.1]oct-3-yl)-2-{4-[(pyridin-3-ylcarbamoyl)amino]phenyl}pyrimidin-5-yl)-beta-alaninamide] | 5980 |  | 30000 | ≥ 60000 | 13500 |  | 
O=C(Nc1ccc(-c2cc(N3CC4CCC(C3)O4)nc(-c3ccc(NC(=O)NC4CC4)cc3)n2)cc1)NC1CC1 [N′,N′″-{[6-(8-oxa-3-azabicyclo[3.2.1]oct-3-yl)pyrimidine-2,4-diyl]di-4,1-phenylene}bis(1-cyclopropylurea)] | 2920 |  | 310 | 1500 | 4 |  | 
CCNC(=O)Nc1ccc(-c2cc(N3CC4CCC(C3)O4)nc(-c3ccc(NC(=O)NCC)cc3)n2)cc1 [N′,N′″-{[6-(8-oxa-3-azabicyclo[3.2.1]oct-3-yl)pyrimidine-2,4-diyl]di-4,1-phenylene}bis(1-ethylurea)] | 1660 |  | 310 | 790 | 1.85 |  | 
CNC(=O)Nc1ccc(-c2cc(N3CC4CCC(C3)O4)nc(-c3ccc(NC(=O)NC)cc3)n2)cc1 [N′,N′″-{[6-(8-oxa-3-azabicyclo[3.2.1]oct-3-yl)pyrimidine-2,4-diyl]di-4,1-phenylene}bis(1-methylurea)] | 990 |  | 1200 | 1100 | 2.8 |  | 
CN1CCN(c2ccc(NC(=O)Nc3ccc(-c4cc(N5CC6CCC(C5)O6)nc(-c5ccc(NC(=O)Nc6ccc(N7CCN(C)CC7)cc6)cc5)n4)cc3)cc2)CC1 [N′,N′″-{[6-(8-oxa-3-azabicyclo[3.2.1]oct-3-yl)pyrimidine-2,4-diyl]di-4,1-phenylene}bis{1-[4-(4-methylpiperazin-1-yl)phenyl]urea}] | 1020 |  | 300 | 760 | 2.15 |  | 
O=C(Nc1ccc(-c2cc(N3CC4CCC(C3)O4)nc(-c3ccc(NC(=O)OCCO)cc3)n2)cc1)OCCO [bis(2-hydroxyethyl) {[6-(8-oxa-3-azabicyclo[3.2.1]oct-3-yl)pyrimidine-2,4-diyl]di-4,1-phenylene}biscarbamate] | 5000 |  | 240 | 1600 | 9.4 |  | 
CN(Cc1ccc(NC(=O)Nc2ccc(-c3nc(CS(C)(=O)=O)cc(N4CC5CCC(C4)O5)n3)cc2)cc1)C(=O)OC(C)(C)C [tert-butyl methyl(4-{[(4-{4-[(methylsulfonyl)methyl]-6-(8-oxa-3-azabicyclo[3.2.1]oct-3-yl)pyrimidin-2-yl}phenyl)carbamoyl]amino}benzyl)carbamate] | 1930 |  | 210 | 470 | 30 |  | 
